Experimental data published in the supplement of paper PMC6045584.
± gives the standard deviation of the averaged measurements.

compound: CCN(CC)CCNC(=O)c1c(C)[nH]c(/C=C2\C(=O)Nc3ccc(F)cc32)c1C [SUNITINIB]; experiment: surviving fraction relative to DMSO-only wells; higher = less growth inhibition; settings: 0.5 nM; exposure time: 5 days
Method in brief: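 Inhibitors were tested at 0.5, 1, 5, 10, 50, 100, 500 and 1000 nM, applied continuously for five days beginning 24 hours after log-phase tumour cells were seeded at 250–500 per well in 384-well plates. CellTiter-Glo luminescence served as the viability measure, expressed as surviving fraction against the median of DMSO-only wells. Each line, screened three times, was kept only with replicate Pearson r >0.7 and median Z' >0.3.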

Test System | surviving fraction
MDAMB453 BREAST | 0.982 ± 0.0066
MDAMB468 BREAST | 0.8 ± 0.046
MFM223 BREAST | 0.75 ± 0.033
MG63 BONE | 0.872 ± 0.02
MHM BONE | 0.956 ± 0.038
NCIH441 LUNG | 0.963 ± 0.039
NOS1 BONE | 0.762 ± 0.05
NY BONE | 0.904 ± 0.016
OS25HAL BONE | 0.886 ± 0.014
OSHN BONE | 0.9083 ± 0.0045
PCI30 HEADNECK | 0.949 ± 0.075
RDES SOFT TISSUE | 0.851 ± 0.24
S68 BREAST | 0.716 ± 0.13
SAOS2 BONE | 0.792 ± 0.052
SCC36 HEADNECK | 0.754 ± 0.059
SCC47 HEADNECK | 0.886 ± 0.019
SG28 HEADNECK | 0.913 ± 0.11
SG31 HEADNECK | 0.778 ± 0.067
SG43 HEADNECK | 1.27 ± 0.13
SIHA CERVIX | 0.957 ± 0.088
SUM44 BREAST | 0.82 ± 0.065
SUM149 BREAST | 0.797 ± 0.036
SUM149.B1*.S BREAST | 0.877 ± 0.07
SYO1 SYNOVIAL | 0.789 ± 0.035
T47D BREAST | 0.93 ± 0.037
U2OS BONE | 0.882 ± 0.039
VCAP PROSTATE | 0.976 ± 0.065
VP229 BREAST | 0.708 ± 0.076

same assay, conditions: 1 nM; exposure time: 5 days

Test System | surviving fraction
MFM223 BREAST | 0.758 ± 0.032
MG63 BONE | 0.865 ± 0.034
MHM BONE | 0.962 ± 0.021
NY BONE | 0.855 ± 0.023
OSHN BONE | 0.906 ± 0.0096
PCI30 HEADNECK | 0.936 ± 0.033
RDES SOFT TISSUE | 0.741 ± 0.2
S68 BREAST | 0.674 ± 0.15
SAOS2 BONE | 0.691 ± 0.088
SCC36 HEADNECK | 0.783 ± 0.11
SCC47 HEADNECK | 0.9 ± 0.059
SCC90 HEADNECK | 0.814 ± 0.086
SG27 HEADNECK | 0.949 ± 0.026
SG28 HEADNECK | 0.789 ± 0.051
SG31 HEADNECK | 0.858 ± 0.037
SG32 HEADNECK | 0.578 ± 0.032

Test System | surviving fraction
SG43 HEADNECK | 1.25 ± 0.068
SJSA1 BONE | 0.869 ± 0.017
SKBR3 BREAST | 0.795 ± 0.073
SNU475 LIVER | 0.729 ± 0.052
SUM44 BREAST | 0.877 ± 0.02
SUM149 BREAST | 0.755 ± 0.016
SUM149.B1*.S BREAST | 0.786 ± 0.039
SUM159 BREAST | 0.9683 ± 0.0076
SYO1 SYNOVIAL | 0.609 ± 0.092
T47D BREAST | 0.896 ± 0.059
U2OS BONE | 0.893 ± 0.032
VCAP PROSTATE | 1 ± 0.088
VP229 BREAST | 0.675 ± 0.1
YAMATO SYNOVIAL | 0.392 ± 0.031
ZR751 BREAST | 1.1 ± 0.16

same assay, conditions: 5 nM; exposure time: 5 days

Test System | surviving fraction
MFM223 BREAST | 0.7412 ± 0.002
MG63 BONE | 0.876 ± 0.015
MHM BONE | 0.9887 ± 0.0061
RDES SOFT TISSUE | 0.794 ± 0.11
SCC36 HEADNECK | 0.8 ± 0.02
SG27 HEADNECK | 0.922 ± 0.072
SG28 HEADNECK | 0.807 ± 0.086
SG31 HEADNECK | 0.884 ± 0.12
SG32 HEADNECK | 0.771 ± 0.13
SG43 HEADNECK | 0.975 ± 0.18
SIHA CERVIX | 0.972 ± 0.04
SKBR3 BREAST | 0.738 ± 0.1
SNU475 LIVER | 0.814 ± 0.049
SUM44 BREAST | 0.966 ± 0.061
SUM149 BREAST | 0.884 ± 0.052
SYO1 SYNOVIAL | 0.664 ± 0.03
T47D BREAST | 0.911 ± 0.018
U2OS BONE | 0.95 ± 0.032
VCAP PROSTATE | 1.09 ± 0.07
VP229 BREAST | 0.709 ± 0.04
YAMATO SYNOVIAL | 0.586 ± 0.058
ZR751 BREAST | 1.15 ± 0.083

same assay, conditions: 10 nM; exposure time: 5 days

Test System | surviving fraction
MDAMB453 BREAST | 1.03 ± 0.026
MDAMB468 BREAST | 0.927 ± 0.072
MFM223 BREAST | 0.707 ± 0.041
NCIH441 LUNG | 0.952 ± 0.029
NOS1 BONE | 0.645 ± 0.039
NY BONE | 0.918 ± 0.04
OS25HAL BONE | 0.871 ± 0.053
OSHN BONE | 0.8813 ± 0.0055
PCI30 HEADNECK | 1.13 ± 0.05
RDES SOFT TISSUE | 0.794 ± 0.12
S68 BREAST | 0.74 ± 0.18
SAOS2 BONE | 0.692 ± 0.073
SCC36 HEADNECK | 0.714 ± 0.078
SCC90 HEADNECK | 0.887 ± 0.064
SG27 HEADNECK | 0.744 ± 0.046
SG28 HEADNECK | 0.313 ± 0.042

Test System | surviving fraction
SG31 HEADNECK | 0.419 ± 0.04
SG32 HEADNECK | 0.423 ± 0.078
SIHA CERVIX | 0.984 ± 0.028
SJSA1 BONE | 0.872 ± 0.022
SKBR3 BREAST | 0.696 ± 0.12
SNU475 LIVER | 0.371 ± 0.031
SUM44 BREAST | 0.915 ± 0.04
SUM149 BREAST | 0.213 ± 0.016
SUM149.B1*.S BREAST | 0.437 ± 0.023
SUM159 BREAST | 0.927 ± 0.06
SYO1 SYNOVIAL | 0.313 ± 0.13
T47D BREAST | 0.817 ± 0.034
VCAP PROSTATE | 1.02 ± 0.038
VP229 BREAST | 0.709 ± 0.065
YAMATO SYNOVIAL | 0.0847 ± 0.0081

same assay, conditions: 50 nM; exposure time: 5 days

Test System | surviving fraction
MDAMB453 BREAST | 1.022 ± 0.005
MDAMB468 BREAST | 1.1 ± 0.091
MFM223 BREAST | 1.01 ± 0.11
MG63 BONE | 0.877 ± 0.028
NCIH441 LUNG | 1.02 ± 0.043
NOS1 BONE | 0.561 ± 0.029
NY BONE | 0.937 ± 0.01
OS25HAL BONE | 0.926 ± 0.038
PCI30 HEADNECK | 1.38 ± 0.064
S68 BREAST | 1.07 ± 0.098
SAOS2 BONE | 0.985 ± 0.064
SCC47 HEADNECK | 1.02 ± 0.016
SG27 HEADNECK | 1.22 ± 0.077
SG28 HEADNECK | 0.893 ± 0.14
SG31 HEADNECK | 0.93 ± 0.06
SG32 HEADNECK | 0.96 ± 0.045
SG43 HEADNECK | 0.824 ± 0.12
SIHA CERVIX | 1.11 ± 0.047
SJSA1 BONE | 1.02 ± 0.038
SKBR3 BREAST | 0.875 ± 0.035
SUM44 BREAST | 1.07 ± 0.076
SUM149 BREAST | 0.906 ± 0.061
